Results published in PubChem BioAssay (NCI).
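96-well plates; 48 h exposure; 5 concentrations. Endpoints by linear interpolation between flanking doses. Not reached: highest tested concentration assigned. The concentration for full growth arrest is given as TGI.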

Columns and labels:
Test in all cases: NCI tumour cell line growth inhibition, 48 h
MDA-MB-435 = test system: MDA-MB-435
EKVX NSCLC = test system: EKVX NSCLC
HOP-92 NSCLC = test system: HOP-92 NSCLC
COLO 205 colon = test system: COLO 205 colon
SF-268 CNS = test system: SF-268 CNS
NCI-H226 lung = test system: NCI-H226 lung
786-0 renal = test system: 786-0 renal
NCI-H23 lung = test system: NCI-H23 lung
SF-295 CNS = test system: SF-295 CNS
RXF 393 renal = test system: RXF 393 renal
HCC-2998 colon = test system: HCC-2998 colon
SNB-75 CNS = test system: SNB-75 CNS
SK-MEL-2 melanoma = test system: SK-MEL-2 melanoma
ACHN renal = test system: ACHN renal
OVCAR-5 ovarian = test system: OVCAR-5 ovarian
SN12C renal = test system: SN12C renal
MCF7 breast = test system: MCF7 breast
OVCAR-3 ovarian = test system: OVCAR-3 ovarian
SF-539 CNS = test system: SF-539 CNS
TK-10 renal = test system: TK-10 renal
SK-OV-3 ovarian = test system: SK-OV-3 ovarian
SR leukemia = test system: SR leukemia
A498 renal = test system: A498 renal
SW-620 colon = test system: SW-620 colon
NCI/ADR-RES ovarian = test system: NCI/ADR-RES ovarian
SNB-19 CNS = test system: SNB-19 CNS
NCI-H460 lung = test system: NCI-H460 lung
BT-549 breast = test system: BT-549 breast
T-47D breast = test system: T-47D breast
MDA-MB-231 breast = test system: MDA-MB-231 breast
M14 melanoma = test system: M14 melanoma
UO-31 renal = test system: UO-31 renal
MOLT-4 leukemia = test system: MOLT-4 leukemia
CAKI-1 renal = test system: CAKI-1 renal
OVCAR-8 ovarian = test system: OVCAR-8 ovarian
LOX IMVI melanoma = test system: LOX IMVI melanoma
HS 578T breast = test system: HS 578T breast
HOP-62 NSCLC = test system: HOP-62 NSCLC
UACC-257 melanoma = test system: UACC-257 melanoma
RPMI-8226 leukemia = test system: RPMI-8226 leukemia
CCRF-CEM leukemia = test system: CCRF-CEM leukemia
IGROV1 ovarian = test system: IGROV1 ovarian
OVCAR-4 ovarian = test system: OVCAR-4 ovarian
K-562 leukemia = test system: K-562 leukemia
U251 CNS = test system: U251 CNS
HCT-15 colon = test system: HCT-15 colon
UACC-62 melanoma = test system: UACC-62 melanoma
PC-3 prostate = test system: PC-3 prostate
MDA-N = test system: MDA-N
NCI-H522 lung = test system: NCI-H522 lung
SK-MEL-5 melanoma = test system: SK-MEL-5 melanoma
DU-145 prostate = test system: DU-145 prostate
KM12 colon = test system: KM12 colon
HCT-116 colon = test system: HCT-116 colon
HL-60(TB) leukemia = test system: HL-60(TB) leukemia
MALME-3M melanoma = test system: MALME-3M melanoma
SK-MEL-28 melanoma = test system: SK-MEL-28 melanoma
A549 NSCLC = test system: A549 NSCLC
HT29 colon = test system: HT29 colon

Measured: TGI

O=c1nc2c(c(-c3ccc(F)cc3)[nH]1)COC/C2=C\c1ccc(F)cc1
not listed: HL-60(TB) leukemia | MALME-3M melanoma | SK-MEL-28 melanoma | A549 NSCLC | HT29 colon
> 100 µM: all other assays above

O=C(O)CNCCc1ccccc1
not listed: HCC-2998 colon | SF-539 CNS | MOLT-4 leukemia | UACC-257 melanoma
> 100 µM: all other assays above
